The test system of one assay is A.n. In words: Minimum Inhibitory Concentration Test, alternate (Table 4), A.n. In kind it is cell-based, Aspergillus niger. As to conditions: Aspergillus niger, TSB, 72 hours. Put shortly:
(§1)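 Compound in acetone was diluted into TSB and serially diluted 1:1 from 250 ppm down to 0.8 ppm, in duplicate. Plates were inoculated with diluted 24 h culture and incubated 3 days at 30° C; MIC recorded as lowest concentration with no growth.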

Another assay relates to A.p. In words: Minimum Inhibitory Concentration Test, alternate (Table 4), A.p. In kind it is cell-based. As to conditions: Aureobasidium pullulans, TSB, 72 hours. On the procedure:
(§2) A 125 μl aliquot of 10,000 ppm test compound in acetone was added to 4.88 ml of TSB to provide a 250 ppm solution. From this solution, 100 μL was transferred to the first row of two microtiter plate columns. Both replicates and five additional compounds were all serially diluted 1:1 to a final concentration of 0.8 ppm in TSB.
(§3) Inoculation was accomplished by diluting a 24 hr Ps fl culture, four mls per 36 mls of phosphate buffer solution. A Dynatech autoinoculator was used to transfer 1.5 μl of this cell suspension to the microtiter plates. The plates were incubated at 30° C. for 3 days before the lowest concentration at which no growth occurs was recorded in the database. The SOK data and MIC test data on Ps.fl, Ps.ae, E.c, and S.a. bacteria and Candida albicans (C.alb), A.n and A.p fungi are listed in Table 4.

The next assay relates to Candida albicans (C.alb). Kind of assay: Minimum Inhibitory Concentration Test, alternate (Table 4), C.alb. In kind it is cell-based. As to conditions: Candida albicans, TSB, 72 hours. On the procedure: as §2, §3
The next assay has as its system E.c. Kind of assay: Minimum Inhibitory Concentration Test, alternate (Table 4), E.c. Conditions: Escherichia coli, TSB, 72 hours. The assay is classed as cell-based, Escherichia coli. On the procedure:
as §2, §3

The next assay concerns Ps.ae. In words: Minimum Inhibitory Concentration Test, alternate (Table 4), Ps.ae. In kind it is cell-based, Pseudomonas aerugenosa. Conditions: Pseudomonas, TSB, 72 hours.
For a further assay, the system named is Pseudomonas fluorescens. In words: Minimum Inhibitory Concentration Test, alternate (Table 4), Ps.fl. In kind it is cell-based. Conditions: Pseudomonas fluorescens, TSB, 72 hours, 30° C. Put shortly:
as §1

A further assay concerns S.a. Kind of assay: Minimum Inhibitory Concentration Test, alternate (Table 4), S.a. The assay is classed as cell-based, Staphylococcus aureus. Conditions: Staphylococcus aureus, TSB, 72 hours. On the procedure:
as §2, §3

The subject of assay [1] is Pseudoperonospora cubensis. Kind of assay: whole plant or invertebrate. In kind it is in vivo. Conditions: Pseudoperonospora cubensis, in Cucumis sativus, 168 h; read-out: % control CDM.
For another assay, the system named is Piricularia oryzae. Kind of assay: whole plant or invertebrate. As to conditions: Pyricularia oryzae, read-out: % control RB. In kind it is in vivo.
Assay [2] has as its system Pellicularia filamentosa (f. sp. sasiki). Kind of assay: whole plant or invertebrate. The assay is classed as in vivo. As to conditions: 120 h; read-out: % control RSB.
The next assay concerns Phytophthora infestans. Kind of assay: whole plant or invertebrate. In kind it is in vivo. As to conditions: Phytophthora infestans, in Solanum lycopersicum, 96 h, read-out: % control TLB.
The subject of assay [3] is Erysiphe graminis (f. sp. tritici). Kind of assay: whole plant or invertebrate. In kind it is in vivo. As to conditions: Blumeria graminis; read-out: % control WPM.
Assay [4] concerns Puccinia recondita (f. sp. tritici Races PKB and PLD). Kind of assay: whole plant or invertebrate. The assay is classed as in vivo. As to conditions: Puccinia recondita, 240 h; read-out: % control WLR.

Among the data in US5118681A (priority 1989, dated 1992) are MIC and pest or weed control values, retold here.

Converted amounts (≈) assume the structure as drawn.

What is called MIC is the smallest concentration in the dilution series that meets the test's criterion for growth inhibition. A lower MIC goes with inhibition by little substance. As to `CCCCCCCCNC(=O)/C=C\SC(C(=O)Nc1cccc(Cl)c1Cl)C(=O)OCC` (stereo not drawn) [Example 35, N-n-octyl-cis-3-{2-[ethyl-N-(2,3-dichlorophenyl)malonamido]thio}acrylamide], the MIC against A.n was 8 to 16 µg/mL (≈ 16.3 to 32.7 µM); against A.p, < 2 µg/mL; with Candida albicans (C.alb), 4 µg/mL (≈ 8.17 µM); against E.c it was > 250 µg/mL; in the assay on Ps.ae, > 250 µg/mL; in the assay with Pseudomonas fluorescens it was 500 µg/mL (≈ 1020 µM). The MIC against S.a is > 250 µg/mL. Also, the pest or weed control at 100 ppm was 99% in assay [1]; 0% in the assay on Piricularia oryzae; 0% in assay [2]; 95% with Phytophthora infestans; 0% in assay [3]; 50% in assay [4].
In the case of `CCCCCCCCNC(=O)/C=C\SC(C(=O)NCCCN1CCOCC1)C(=O)OCC` (stereo not drawn) [Example 51, N-n-octyl-cis-3-{2-[ethyl-N-(3-(4-morpholino)propyl)malonamido]thio}acrylamide], the MIC with A.n was < 2 µg/mL; against A.p, < 2 µg/mL; against Candida albicans (C.alb), < 2 µg/mL; with E.c, > 250 µg/mL; in the assay on Ps.ae, > 250 µg/mL; against Pseudomonas fluorescens, > 250 µg/mL. The same compound had an MIC against S.a of 31 µg/mL (≈ 65.7 µM). Besides, the pest or weed control at 100 ppm in assay [1] worked out at 99%; with Piricularia oryzae it was 0%; in assay [2], 0%; with Phytophthora infestans, 0%; in [3], 0%; in [4], 0%.
As for `CCCCCCCCNC(=O)/C=C\SC(C(=O)NCCc1ccccn1)C(=O)OCC` (stereo not drawn) [Example 66, N-n-octyl-cis-3-{2-[ethyl-N-(2-(2-pyridyl)ethyl)malonamido]thio}acrylamide], the minimal inhibitory concentration (MIC) in the assay with A.n was < 2 µg/mL; against A.p, < 2 µg/mL; against Candida albicans (C.alb), < 2 µg/mL; with E.c it was > 250 µg/mL; with Ps.ae, > 250 µg/mL; with Pseudomonas fluorescens, > 250 µg/mL. The same compound returned an MIC against S.a of 63 µg/mL (≈ 140 µM). Moreover, the pest or weed control at 100 ppm is 100% in assay [1]; 0% in the assay on Piricularia oryzae; 0% in assay [2]; 40% in the assay on Phytophthora infestans; 0% in assay [3]; 0% in assay [4].
As to `CCCCCCCCNC(=O)/C=C\SC(C(=O)Nc1ccc(Cl)c([N+](=O)[O-])c1)C(=O)OCC` (stereo not drawn) [Example 48, N-n-octyl-cis-3-{2-[ethyl-N-(3-nitro-4-chlorophenyl)malonamido]thio}acrylamide], the MIC against A.n is 4 to 31 µg/mL (≈ 8 to 62 µM); in the assay on A.p, < 2 µg/mL; with Candida albicans (C.alb), 31 µg/mL (≈ 62 µM); in the assay on E.c, > 250 µg/mL; in the assay with Ps.ae, > 250 µg/mL; against Pseudomonas fluorescens it was > 250 µg/mL. For the same compound, the MIC in the assay on S.a is > 250 µg/mL. The pest or weed control at 100 ppm is 99% in assay [1]; 0% in the assay on Piricularia oryzae; 0% in assay [2]; 99% with Phytophthora infestans; 0% in assay [3]; 50% in assay [4].
Turning to `CCCCCCCCNC(=O)/C=C\SC(C(=O)NC1CC1)C(=O)OCC` (stereo not drawn) [Example 36, N-n-octyl-cis-3-[2-(ethyl-N-cyclopropylmalonamido)thio]acrylamide], the MIC against A.n is 8 to 16 µg/mL (≈ 20.8 to 41.6 µM); in the assay with A.p it was < 2 µg/mL; in the assay on Candida albicans (C.alb) it was 31 µg/mL (≈ 80.6 µM); with E.c, > 250 µg/mL; against Ps.ae it was > 250 µg/mL; against Pseudomonas fluorescens, 500 µg/mL (≈ 1300 µM). Moreover, in the assay on S.a, the MIC turned out to be 125 µg/mL (≈ 325 µM). Moreover, the pest or weed control at 100 ppm in [1] is 100%; in the assay with Piricularia oryzae, 90%; in assay [2], 0%; in the assay on Phytophthora infestans, 47%; in assay [3] it was 0%; in [4], 50%.
For the compound `CCCCCCCCNC(=O)/C=C\SC(C(C)=O)C(=O)NCc1ccccc1` (stereo not drawn) [Example 12, N-n-octyl-cis-3-[2-(N-benzylacetoacetamideo)thio]acrylamide], the minimal inhibitory concentration (MIC) against A.n is 4 to 16 µg/mL (≈ 9.89 to 39.5 µM); against A.p, 8 µg/mL (≈ 19.8 µM); against Candida albicans (C.alb) it was 16 µg/mL (≈ 39.5 µM); in the assay on E.c it was > 500 µg/mL; in the assay with Ps.ae, > 500 µg/mL; against Pseudomonas fluorescens it was 125 to 500 µg/mL (≈ 309 to 1240 µM). The MIC in the assay with S.a is > 500 µg/mL. Further, the pest or weed control at 200 ppm in assay [1] is 100%; with Piricularia oryzae, 75%; in [2], 25%; in assay [3], 75%; in assay [4], 75%. Also, the pest or weed control at 100 ppm in the assay with Phytophthora infestans amounted to 100%.
On to `CCCCCCCCNC(=O)/C=C\SC(C(C)=O)C(=O)Nc1ccccc1OC` (stereo not drawn) [Example 30, N-n-octyl-cis-3-{2-[N-(2-methoxyphenyl)acetoacetamido]thio}acrylamide], for which the minimum inhibitory concentration (MIC) with A.n is 31 to 63 µg/mL (≈ 73.7 to 150 µM); in the assay on A.p, 250 µg/mL (≈ 594 µM); in the assay with Candida albicans (C.alb), 8 µg/mL (≈ 19 µM); against E.c, > 500 µg/mL; with Ps.ae it was 500 µg/mL (≈ 1190 µM); against Pseudomonas fluorescens, > 500 µg/mL. The MIC in the assay on S.a is > 500 µg/mL. For the same compound, the pest or weed control at 200 ppm in assay [1] was determined as 100%; in the assay with Piricularia oryzae it was 90%; in assay [2] it was 0%; with Phytophthora infestans, 80%; in assay [3], 0%; in [4] it was 0%.
Turning to `CCCCCCCCNC(=O)/C=C\SC(C(=O)NN1CCOCC1)C(=O)OCC` (stereo not drawn) [Example 63, N-n-octyl-cis-3-{2-[ethyl-N-(4-morpholino)malonamido]thio}acrylamide], the MIC in the assay on A.n is 2 to 16 µg/mL (≈ 4.66 to 37.2 µM); in the assay with A.p, < 2 µg/mL; against Candida albicans (C.alb), < 2 µg/mL; with E.c, 250 µg/mL (≈ 582 µM); with Ps.ae, > 250 µg/mL; in the assay with Pseudomonas fluorescens, > 250 µg/mL. For the same compound, inhibition of growth against S.a (MIC) required 31 µg/mL (≈ 72.2 µM). Besides, the pest or weed control at 100 ppm in assay [1] turned out to be 99%; in the assay on Piricularia oryzae, 0%; in assay [2] it was 0%; with Phytophthora infestans, 0%; in assay [3], 0%; in assay [4], 0%.
Take `C=CCNC(=O)C(S/C=C\C(=O)NCCCCCCCC)C(=O)OCC` (stereo not drawn) [Example 37, N-n-octyl-cis-3-{2-[ethyl-N-(2-propenyl)malonamido]thio}acrylamide]: the MIC is 4 to 8 µg/mL (≈ 10.4 to 20.8 µM) with A.n; < 2 µg/mL with A.p; 8 µg/mL (≈ 20.8 µM) with Candida albicans (C.alb); > 250 µg/mL in the assay with E.c; > 250 µg/mL with Ps.ae; 500 µg/mL (≈ 1300 µM) in the assay on Pseudomonas fluorescens. Moreover, it took 31 µg/mL (≈ 80.6 µM) to inhibit growth in the assay with S.a (MIC). Further, the pest or weed control at 100 ppm was found to be 100% in assay [1]; 95% with Piricularia oryzae; 0% in assay [2]; 95% in the assay on Phytophthora infestans; 50% in assay [3]; 75% in [4].
In the case of `CCCCCCCCNC(=O)/C=C\SC(C(=O)Nc1ccc(Cl)cc1Cl)C(=O)OCC` (stereo not drawn) [Example 41, N-n-octyl-cis-3-{2-[ethyl-N-(2,4-dichlorophenyl)malonamido]thio}acrylamide], the minimum inhibitory concentration (MIC) in the assay with A.n was 8 to 31 µg/mL (≈ 16.3 to 63.3 µM); with A.p it was 8 µg/mL (≈ 16.3 µM); in the assay on Candida albicans (C.alb) it was 63 µg/mL (≈ 129 µM); in the assay with E.c it was > 500 µg/mL; in the assay on Ps.ae, > 500 µg/mL; with Pseudomonas fluorescens it was > 500 µg/mL. Further, in the assay on S.a, the MIC was > 500 µg/mL. Moreover, the pest or weed control at 100 ppm in assay [1] is 100%; in the assay with Piricularia oryzae, 99%; in assay [2] it was 0%; in the assay with Phytophthora infestans, 87%; in [3], 50%; in assay [4] it was 0%.
As for `CCCCCCCCNC(=O)/C=C\SC(C(C)=O)C(=O)Nc1ccc(OC)cc1` (stereo not drawn) [Example 47, N-n-octyl-cis-3-{2-[N-(4-methoxyphenyl)acetoacetamido]thio}acrylamide], the MIC is 4 to 16 µg/mL (≈ 9.51 to 38 µM) with A.n; < 2 µg/mL in the assay on A.p; 4 µg/mL (≈ 9.51 µM) with Candida albicans (C.alb); > 250 µg/mL in the assay with E.c; > 250 µg/mL against Ps.ae; > 250 µg/mL in the assay with Pseudomonas fluorescens. Further, the minimal inhibitory concentration (MIC) against S.a is 31 µg/mL (≈ 73.7 µM). The pest or weed control at 100 ppm came to 100% in assay [1]; 0% in the assay on Piricularia oryzae; 0% in [2]; 80% with Phytophthora infestans; 0% in assay [3]; 0% in [4].
